Tested on: 898857-211-R-J1-PDC complex spheroids, growth % test/control
Test: Anticancer human tumor 898857-211-R-J1-PDC patient-derived melanoma cell line growth inhibition [RAS]
Settings: for IC50: curve of first compound; for viability, T/C: stronger effect = lower value
Method in brief: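 Multi-cell-type spheroids: tumor cells plus HUVEC endothelial cells and mesenchymal stem cells. RAS-pathway inhibitors were combined with targeted agents, each dosed in half-log steps down from clinical Cmax, or from 10 microM when Cmax was unknown.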

[1] = second compound 0.00316 µM, first compound 0.000949 µM
[2] = second compound 0.00316 µM, first compound 0.003 µM
[3] = second compound 0.00316 µM, first compound 0.00949 µM
[4] = second compound 0.00316 µM, first compound 0.03 µM
[5] = second compound 0.00316 µM, first compound 0.0949 µM
[6] = second compound 0.00316 µM, first compound 0.3 µM
[7] = second compound 0.01 µM, first compound 0.000949 µM
[8] = second compound 0.01 µM, first compound 0.003 µM
[9] = second compound 0.01 µM, first compound 0.00949 µM
[10] = second compound 0.01 µM, first compound 0.03 µM
[11] = second compound 0.01 µM, first compound 0.0949 µM
[12] = second compound 0.01 µM, first compound 0.3 µM
[13] = second compound 0.0316 µM, first compound 0.000949 µM
[14] = second compound 0.0316 µM, first compound 0.003 µM
[15] = second compound 0.0316 µM, first compound 0.00949 µM
[16] = second compound 0.0316 µM, first compound 0.03 µM
[17] = second compound 0.0316 µM, first compound 0.0949 µM
[18] = second compound 0.0316 µM, first compound 0.3 µM
[19] = second compound 0.1 µM, first compound 0.000949 µM
[20] = second compound 0.1 µM, first compound 0.003 µM
[21] = second compound 0.1 µM, first compound 0.00949 µM
[22] = second compound 0.1 µM, first compound 0.03 µM
[23] = second compound 0.1 µM, first compound 0.0949 µM
[24] = second compound 0.1 µM, first compound 0.3 µM
[25] = second compound 0.316 µM, first compound 0.000949 µM
[26] = second compound 0.316 µM, first compound 0.003 µM
[27] = second compound 0.316 µM, first compound 0.00949 µM
[28] = second compound 0.316 µM, first compound 0.03 µM
[29] = second compound 0.316 µM, first compound 0.0949 µM
[30] = second compound 0.316 µM, first compound 0.3 µM
[31] = second compound 1 µM, first compound 0.000949 µM
[32] = second compound 1 µM, first compound 0.003 µM
[33] = second compound 1 µM, first compound 0.00949 µM
[34] = second compound 1 µM, first compound 0.03 µM
[35] = second compound 1 µM, first compound 0.0949 µM
[36] = second compound 1 µM, first compound 0.3 µM
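Further: spheroids exposed to compound for seven days before readout.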
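Wherever viability, T/C is given: 100% = DMSO vehicle control wells.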

SMILES: CC(=O)OC12COC1CC(O)C1(C)C(=O)C(O)C3=C(C)C(OC(=O)C(O)C(NC(=O)OC(C)(C)C)c4ccccc4)CC(O)(C(OC(=O)c4ccccc4)C21)C3(C)C (stereo unspecified) + C=CC(=O)N1CCN(c2nc(OCC3CCCN3C)nc3c(F)c(-c4nc(N)cc(C)c4C(F)(F)F)c(Cl)cc23)C(C)C1
- IC50 (second compound 0.00316 µM): < 31.6 nM
- IC50 (second compound 0.01 µM): < 31.6 nM
- IC50 (second compound 0.0316 µM): < 31.6 nM
- IC50 (second compound 0.1 µM): < 31.6 nM
- IC50 (second compound 0.316 µM): < 31.6 nM
- IC50 (second compound 1 µM): < 31.6 nM
- viability, T/C (second compound 0.00316 µM, first compound 0.0316 µM): 12.3%
- viability, T/C (second compound 0.00316 µM, first compound 0.1 µM): 15.6%
- viability, T/C (second compound 0.00316 µM, first compound 0.316 µM): 14.2%
- viability, T/C (second compound 0.00316 µM, first compound 1 µM): 15.5%
- viability, T/C (second compound 0.00316 µM, first compound 3.16 µM): 21.2%
- viability, T/C (second compound 0.00316 µM, first compound 10 µM): 20.4%
- viability, T/C (second compound 0.01 µM, first compound 0.0316 µM): 12%
- viability, T/C (second compound 0.01 µM, first compound 0.1 µM): 13.7%
- viability, T/C (second compound 0.01 µM, first compound 0.316 µM): 10.5%
- viability, T/C (second compound 0.01 µM, first compound 1 µM): 14.5%
- viability, T/C (second compound 0.01 µM, first compound 3.16 µM): 21.1%
- viability, T/C (second compound 0.01 µM, first compound 10 µM): 19.6%
- viability, T/C (second compound 0.0316 µM, first compound 0.0316 µM): 13.1%
- viability, T/C (second compound 0.0316 µM, first compound 0.1 µM): 13.1%
- viability, T/C (second compound 0.0316 µM, first compound 0.316 µM): 14.3%
- viability, T/C (second compound 0.0316 µM, first compound 1 µM): 14.8%
- viability, T/C (second compound 0.0316 µM, first compound 3.16 µM): 24.2%
- viability, T/C (second compound 0.0316 µM, first compound 10 µM): 20%
- viability, T/C (second compound 0.1 µM, first compound 0.0316 µM): 11.5%
- viability, T/C (second compound 0.1 µM, first compound 0.1 µM): 15.1%
- viability, T/C (second compound 0.1 µM, first compound 0.316 µM): 14.3%
- viability, T/C (second compound 0.1 µM, first compound 1 µM): 16.5%
- viability, T/C (second compound 0.1 µM, first compound 3.16 µM): 16.2%
- viability, T/C (second compound 0.1 µM, first compound 10 µM): 19.9%
- viability, T/C (second compound 0.316 µM, first compound 0.0316 µM): 12.8%
- viability, T/C (second compound 0.316 µM, first compound 0.1 µM): 15.5%
- viability, T/C (second compound 0.316 µM, first compound 0.316 µM): 14.2%
- viability, T/C (second compound 0.316 µM, first compound 1 µM): 16.9%
- viability, T/C (second compound 0.316 µM, first compound 3.16 µM): 14.7%
- viability, T/C (second compound 0.316 µM, first compound 10 µM): 21.1%
- viability, T/C (second compound 1 µM, first compound 0.0316 µM): 12%
- viability, T/C (second compound 1 µM, first compound 0.1 µM): 13.3%
- viability, T/C (second compound 1 µM, first compound 0.316 µM): 12.1%
- viability, T/C (second compound 1 µM, first compound 1 µM): 15.4%
- viability, T/C (second compound 1 µM, first compound 3.16 µM): 19.4%
- viability, T/C (second compound 1 µM, first compound 10 µM): 15.2%

SMILES: CC1(C)CCC(Nc2ncc(C(F)(F)F)c(-c3c[nH]c4c(P(C)(C)=O)c(C#N)ccc34)n2)CN1 (stereo unspecified) + C=CC(=O)N1CCN(c2nc(OCC3CCCN3C)nc3c(F)c(-c4nc(N)cc(C)c4C(F)(F)F)c(Cl)cc23)C(C)C1
- IC50 (second compound 0.00316 µM): 5.36 nM
- IC50 (second compound 0.01 µM): 5.18 nM
- IC50 (second compound 0.0316 µM): 4.69 nM
- IC50 (second compound 0.1 µM): 5.81 nM
- IC50 (second compound 0.316 µM): 5.77 nM
- IC50 (second compound 1 µM): 4.52 nM
- viability, T/C [1]: 96.9%
- viability, T/C [2]: 67.8%
- viability, T/C [3]: 32.1%
- viability, T/C [4]: 20.6%
- viability, T/C [5]: 16.4%
- viability, T/C [6]: 14.5%
- viability, T/C [7]: 96.9%
- viability, T/C [8]: 66.3%
- viability, T/C [9]: 32.1%
- viability, T/C [10]: 19.5%
- viability, T/C [11]: 18.5%
- viability, T/C [12]: 17.8%
- viability, T/C [13]: 91.3%
- viability, T/C [14]: 61.3%
- viability, T/C [15]: 32%
- viability, T/C [16]: 22%
- viability, T/C [17]: 17.4%
- viability, T/C [18]: 17.1%
- viability, T/C [19]: 91.8%
- viability, T/C [20]: 74.7%
- viability, T/C [21]: 32%
- viability, T/C [22]: 14.9%
- viability, T/C [23]: 17.6%
- viability, T/C [24]: 15.8%
- viability, T/C [25]: 101%
- viability, T/C [26]: 70.5%
- viability, T/C [27]: 33.8%
- viability, T/C [28]: 21.8%
- viability, T/C [29]: 17.8%
- viability, T/C [30]: 15%
- viability, T/C [31]: 98.9%
- viability, T/C [32]: 61.3%
- viability, T/C [33]: 29.3%
- viability, T/C [34]: 18.3%
- viability, T/C [35]: 15%
- viability, T/C [36]: 12.2%

SMILES: CCc1c2c(nc3ccc(O)cc13)-c1cc3c(c(=O)n1C2)COC(=O)[C@]3(O)CC + C=CC(=O)N1CCN(c2nc(OCC3CCCN3C)nc3c(F)c(-c4nc(N)cc(C)c4C(F)(F)F)c(Cl)cc23)C(C)C1
- IC50 (second compound 0.00316 µM): 4.67 nM
- IC50 (second compound 0.01 µM): 4.95 nM
- IC50 (second compound 0.0316 µM): 5.08 nM
- IC50 (second compound 0.1 µM): 4.95 nM
- IC50 (second compound 0.316 µM): 5.43 nM
- IC50 (second compound 1 µM): 5.56 nM
- viability, T/C [1]: 95.2%
- viability, T/C [2]: 64.1%
- viability, T/C [3]: 27.9%
- viability, T/C [4]: 8.98%
- viability, T/C [5]: 7.24%
- viability, T/C [6]: 8.79%
- viability, T/C [7]: 89.6%
- viability, T/C [8]: 67.4%
- viability, T/C [9]: 27.5%
- viability, T/C [10]: 10.1%
- viability, T/C [11]: 7.97%
- viability, T/C [12]: 8.39%
- viability, T/C [13]: 87.3%
- viability, T/C [14]: 69.2%
- viability, T/C [15]: 27.4%
- viability, T/C [16]: 8.88%
- viability, T/C [17]: 8.21%
- viability, T/C [18]: 8.99%
- viability, T/C [19]: 93%
- viability, T/C [20]: 68.7%
- viability, T/C [21]: 26%
- viability, T/C [22]: 8.12%
- viability, T/C [23]: 7.6%
- viability, T/C [24]: 8.98%
- viability, T/C [25]: 98.4%
- viability, T/C [26]: 73.3%
- viability, T/C [27]: 28.4%
- viability, T/C [28]: 9.68%
- viability, T/C [29]: 9.81%
- viability, T/C [30]: 8.65%
- viability, T/C [31]: 98%
- viability, T/C [32]: 75.5%
- viability, T/C [33]: 27.8%
- viability, T/C [34]: 11.4%
- viability, T/C [35]: 8.78%
- viability, T/C [36]: 8.26%
